Data published in patent US10660878B2, “Methods of treating dementia and pharmaceutical compositions thereof” (H. Lundbeck A/S, priority 2012, dated 2020).
Entries after “also recorded” stand apart in the source; their conditions may differ. Where two headings read alike, the source gives them in different places. Blank lines part the entries; values can stand above or below the molecule they belong to.

What was measured:
[1] = Phase I PK study in the elderly and AD study 12936A pharmacokinetics; type: in vivo, human; conditions: for half-life: human, plasma, read-out: elimination half life (converted)
Experimental: In total, the dataset used in the popPK model consisted of 265 patients. The doses administered, single or multiple, were in the range of 9.0-300 mg.

[2] = system: patients with schizophrenia; experiment: Study 12450A, adjunctive treatment to risperidone in schizophrenia; type: in vivo, human; conditions: 120 mg/day BID
Experimental: Overall improvement in schizophrenia symptoms was assessed by using the Positive and Negative Syndrome Scale (PANSS) total score.
(§1) The AD study cited in the Background section is referred to in this application as study 12936A. The schizophrenia study cited in the Background section is referred to in this application as study 12450A.

[3] = system: patients with Alzheimer's disease; experiment: Study 12936A, adjunctive treatment to donepezil in Alzheimer's disease; type: in vivo, human; conditions: 90 mg daily (3×30 mg) plus 10 mg/day of donepezil
From the text: In 2012, it was reported that a randomized, double blind, placebo controlled trial conducted in Europe, Canada and Australia met its primary endpoint in the treatment of AD.
An issue for that dose selection was to ensure that the maximum exposure level fell under the maximum exposure limit which had been established from non-clinical toxicology studies. Accordingly, a fixed dose of three times in the study was introduced.
as §1

[4] = Plasma concentration of Compound I (PK) in PET study Part B; type: in vivo, human; conditions: P2 scans, post-dose duration 10-51 hours
Experimental: Dosing schemes include 5 mg (5Q; Part B4) once daily or QD, 30 mg QD (30Q; Part B3), 30 mg b.i.d. (30B; Part B2), and 60 mg b.i.d (60B; Part B1). […] Model 2 was supported over Model 1 in Pu, CN, and vS by Akaike information criterion (AIC; The smaller the AIC value the better the fit) (Akaike 1974) and F-test comparing residual sums of squares (RSS) of the two models (Table 1).

5-HT6 receptor [5] = target: T1, 5-HT6 receptor (Homo sapiens, UniProt P50406); experiment: PET 5-HT6 receptor occupancy after multiple oral doses, [^11C]LuPET radioligand (Part B); type: in vivo; parameters: from tissue; host or cells: brain of living healthy male subjects (putamen, caudate nucleus, ventral striatum), in vivo PET
Experimental: (§2) As the radioligand has not previously been dosed to humans it was initially evaluated in the human brain to identify an optimal method for quantification and validate the radioligand as a PET tracer (Part A).
Eight healthy male subjects (Age: 30.6±7.7 years; range: 22-44 years) participated in Part A, and sixteen healthy male subjects (Age: 32.3±7.6 years; range: 21-44 years) participated in Part B of this study.
(§3) PET studies were performed on the GE Advance Tomograph (GE Medical Systems, Waukesha, Wis., USA). Subjects had one venous catheter for the radioligand injection, and one arterial catheter to obtain arterial blood samples for the determination of radioactivity in plasma. Then, subjects were positioned in the scanner with the head restrained with a custom-made thermoplastic mask to reduce the head motion during PET data acquisition. Then, a 10 minute attenuation scan was performed using a rotating ^68Ge source for attenuation correction. Dynamic PET acquisition was then performed in a three-dimensional mode for 90 min following an intravenous bolus injection of [^11C]LuPET. A total of 30 PET frames were obtained (4×15, 4×30, 3×60, 2×120, 5×240, and 12×300 seconds). […] Selected samples taken at 0, 5, 10, 30, 45, 60, and 90 min were analyzed by HPLC for the presence of the radioligand and its radioactive metabolites as described elsewhere (Hilton et al., 2000).
Volumes of interest (VOIs): Cortical VOIs were automatically defined using Freesurfer software and combined into standard regions including: frontal (Fr), temporal (Tp), parietal (Pa), and occipital (Oc) cortices, fusiform gyms (Fs), cingulate (Cg), and insula (In). Subcortical regions were defined with FIRST software (Patenaude et al., 2011) and manually adjusted on individual MRIs. Subcortical regions included putamen (Pu), caudate nucleus (CN), ventral striatum (vS), globus pallidus (GP), thalamus (Th), hippocampus (Hp), and amygdala (Am). VOIs were transferred from MRI to PET spaces following MRI-to-PET coregistration parameters given by SPMS (Ashbumer J, Friston 2003; Macs et al., 1997) to obtain time-activity curves (TACs) of regions. A total of 25 regions per scan were employed for methodological evaluations (Part A) while occupancy calculation was limited to Pu, CN, and vS (Part B).
Derivation of PET outcome variables: Primary PET outcome variables are total distribution volume, VT and binding potential, BPND (=fND·Bavail/KD, where fND refers to the fraction of non-displaceable compartment, Bavail stands for the density of available (unoccupied) 5-HT6 receptors, and KD stands for the dissociation constant; Innis et al., 2007).
A set of standard plasma input methods were employed to identify the optimal method for derivation of regional distribution volume (VT) for [^11C]LuPET including, a one tissue compartmental model (OTCM) with three parameters (K1, and k2′; See Koeppe et al., 1991 for the definitions, and v0, tissue vascular volume), two tissue compartmental models with five parameters (K1, k2, k3, k4, and v0; See Innis et al., 2007 for the definitions), without and with constraining the K1-k2 ratio (non-displaceable distribution volume, VND (Abi-Dargham et al., 1994) to the cerebellum estimate (TTCM-UC and TTCM-C, respectively), and the plasma reference graphical analysis (PRGA; Logan et al., 1990). In TTCM-UC and TTCM-C, BPND was given as the k3-k4 ratio.
In addition, tissue reference methods, namely the multilinear reference tissue method with 2 parameters (MRTM2; Ichise et al., 2002) and reference tissue graphical analysis (RTGA; Logan et al., 1996) were applied.
Akaike information criteria (AIC; Akaike 1974; Burnham and Anderson 2004) was used to examine goodness of fit for compartmental models and for the examination of occupancy-PK relationships using Equation 3. Results

5-HT6 receptor [6] = target: T1, 5-HT6 receptor; experiment: PK/PD Emax model of 5-HT6 occupancy fitted to PET data; type: in vivo; parameters: from tissue; host or cells: brain of living healthy male subjects (putamen, caudate nucleus, ventral striatum), in vivo PET; conditions: caudate nucleus region; non-linear mixed effect modelling
Experimental: In total three PET scans were performed per subject, the first at baseline, the second around tmax on last day of dosing and the last in the interval 10-51 hours post dose on the last day of dosing.
In order to allow for estimation of the inter-subject variability in the occupancy, non-linear mixed effect modelling was performed where the inter-subject variability was modelled as an exponential term on EC50.

[7] = Evaluation of [^11C]LuPET as PET tracer in the human brain; type: in vivo
Experimental: as §2
as §3, with “2000). […]” for “2000).”

5-HT6 receptor [8] = target: T1, 5-HT6 receptor; experiment: Displacement of [^11C]LuPET binding by olanzapine, PET (Part A); conditions: one dose of 10 mg, scan 5 hours after dose; across brain regions
From the text: In Part A, baseline scans were repeated on the same day (n=1) or separate days (n=7) ranging from 1 to 18 days apart to test reproducibility of PET outcome variables.
[formula] where superscripts indicate BPND of baseline (B) and post-dose (D), respectively.

[9] = Caudate nucleus (CN), PRGA, 3H + P2 pooled
[10] = Caudate nucleus (CN), PRGA, 3H scans
[11] = Caudate nucleus (CN), PRGA, P2 scans
[12] = Caudate nucleus (CN), RTGA, 3H + P2 pooled
[13] = Caudate nucleus (CN), RTGA, 3H scans
[14] = Caudate nucleus (CN), RTGA, P2 scans
[15] = Putamen (Pu), PRGA, 3H + P2 pooled
[16] = Ventral striatum (vS), PRGA, 3H + P2 pooled
[17] = Ventral striatum (vS), PRGA, 3H scans
[18] = Ventral striatum (vS), PRGA, P2 scans

T1 sequence (P50406 whole entry): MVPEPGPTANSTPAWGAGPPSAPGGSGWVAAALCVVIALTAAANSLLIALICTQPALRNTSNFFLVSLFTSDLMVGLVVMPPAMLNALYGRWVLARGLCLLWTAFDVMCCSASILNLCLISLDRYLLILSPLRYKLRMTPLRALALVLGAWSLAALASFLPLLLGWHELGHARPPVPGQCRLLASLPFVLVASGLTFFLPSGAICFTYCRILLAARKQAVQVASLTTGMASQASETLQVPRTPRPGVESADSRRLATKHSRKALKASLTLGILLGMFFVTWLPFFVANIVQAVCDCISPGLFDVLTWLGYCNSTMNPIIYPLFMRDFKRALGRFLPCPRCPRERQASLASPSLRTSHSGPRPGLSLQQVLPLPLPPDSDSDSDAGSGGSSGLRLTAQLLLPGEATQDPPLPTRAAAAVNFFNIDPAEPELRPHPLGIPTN

SMILES: Fc1ccc2c(CCNCc3cccc(OCC(F)(F)C(F)F)c3)c[nH]c2c1 [Compound I, N-[2-(6-fluoro-1H-indol-3-yl)ethyl]-3-(2,2,3,3-tetrafluoropropoxy)benzylamine]
clearance ([1]; elderly compared to younger subjects): reduced
half-life ([1]; elderly population): ~19 h
half-life ([1]; young healthy subjects): ~12 h
PANSS total score vs placebo [2]: did not offer any treatment advantage over placebo
overall neurocognitive performance (BACS composite Z-score, PANSS cognitive subscale scores) vs placebo [2]: did not appear to be any treatment advantage over placebo
secondary endpoints (global impression, daily living activities) vs donepezil treated patients [3]: positive results
cognitive function (ADAS-cog) vs placebo plus donepezil ([3]; 278 patients): significantly improved
PK range (plasma concentration) [4]: 0.54 to 204 ng/mL
receptor occupancy at 30 mg (5-HT6 receptor [5]; 30 mg BID, at Cmax): > 85%
receptor occupancy at 30 mg (5-HT6 receptor [5]; 30 mg QD, at Cmax): ~80%
receptor occupancy at 60 mg (5-HT6 receptor [5]; 60 mg BID, at Cmax): > 90%
PK values predicted to generate 80% occupancy (5-HT6 receptor [5]; CN and vS by PRGA): about 120 ng/mL
PK values predicted to generate 80% occupancy (5-HT6 receptor [5]; CN by RTGA): about 100 ng/mL
80% RO (PK predicted to exert 80% occupancy) (5-HT6 receptor [5]; [9]): 51.1 ng/mL
Omax (5-HT6 receptor [5]; [9]): 91.3%
80% RO (PK predicted to exert 80% occupancy) (5-HT6 receptor [5]; [10]): 50.1 ng/mL
Omax (5-HT6 receptor [5]; [10]): 90.3%
80% RO (PK predicted to exert 80% occupancy) (5-HT6 receptor [5]; [11]): 48.0 ng/mL
Omax (5-HT6 receptor [5]; [11]): 93.9%
80% RO (PK predicted to exert 80% occupancy) (5-HT6 receptor [5]; [12]): 108.4 ng/mL
Omax (5-HT6 receptor [5]; [12]): 85.7%
80% RO (PK predicted to exert 80% occupancy) (5-HT6 receptor [5]; [13]): 102.8 ng/mL
Omax (5-HT6 receptor [5]; [13]): 85.2%
80% RO (PK predicted to exert 80% occupancy) (5-HT6 receptor [5]; [14]): 101.5 ng/mL
Omax (5-HT6 receptor [5]; [14]): 87.1%
PK values predicted to generate 80% occupancy (5-HT6 receptor [5]; Pu by PRGA): about 50 ng/mL
80% RO (PK predicted to exert 80% occupancy) (5-HT6 receptor [5]; [15]): 131.7 ng/mL
Omax (5-HT6 receptor [5]; [15]): 83.2%
80% RO (PK predicted to exert 80% occupancy) (5-HT6 receptor [5]; Putamen (Pu), PRGA, 3H scans): 137.8 ng/mL
Omax (5-HT6 receptor [5]; Putamen (Pu), PRGA, 3H scans): 82.8%
80% RO (PK predicted to exert 80% occupancy) (5-HT6 receptor [5]; Putamen (Pu), PRGA, P2 scans): 116.7 ng/mL
Omax (5-HT6 receptor [5]; Putamen (Pu), PRGA, P2 scans): 83.8%
Omax (5-HT6 receptor [5]; Putamen (Pu), RTGA, 3H + P2 pooled): 77.3%
Omax (5-HT6 receptor [5]; Putamen (Pu), RTGA, 3H scans): 7.5%
Omax (5-HT6 receptor [5]; Putamen (Pu), RTGA, P2 scans): 76.6%
80% RO (PK predicted to exert 80% occupancy) (5-HT6 receptor [5]; [16]): 121.0 ng/mL
Omax (5-HT6 receptor [5]; [16]): 86.0%
80% RO (PK predicted to exert 80% occupancy) (5-HT6 receptor [5]; [17]): 66.5 ng/mL
Omax (5-HT6 receptor [5]; [17]): 85.5%
80% RO (PK predicted to exert 80% occupancy) (5-HT6 receptor [5]; [18]): 133.5 ng/mL
Omax (5-HT6 receptor [5]; [18]): 89.7%
Omax (5-HT6 receptor [5]; Ventral striatum (vS), RTGA, 3H + P2 pooled): 76.5%
Omax (5-HT6 receptor [5]; Ventral striatum (vS), RTGA, 3H scans): 78.2%
Omax (5-HT6 receptor [5]; Ventral striatum (vS), RTGA, P2 scans): 72.1%
5-HT6 receptor occupancy 24 hours post dose (5-HT6 receptor [5]; after multiple dosages, 24 hours post dose vs Cmax): only decreased slightly; also recorded: maintained
Omax (5-HT6 receptor [5]; oral administration, overall study estimate based on Pu and CN): about 90%
Emax (maximal occupancy) (5-HT6 receptor [6]): 91%

k2 (brain-to-blood clearance rate constant) ([7]; cerebellum (Cb), mean across baseline scans, TTCM-UC): 0.076 min⁻¹
distribution volume VT ([7]; striatum target regions): ~10 mL/mL
SMILES: [11CH3]N1CCN(c2cccc3cc(S(=O)(=O)c4ccccc4)cnc23)CC1 [[^11C]LuPET]

SMILES: Cc1cc2c(s1)Nc1ccccc1N=C2N1CCN(C)CC1 [olanzapine]
displacement of binding of [^11C]LuPET (5-HT6 receptor [8]): about 80%
